The text below walks through data of patent US4956368A, “Metabolites and prodrug formulations of 8-[4-[4-(1,2-benzisothiazol-3-yl)-1-piperazinyl]butyl]-8-azaspiro[4.5]de cane-7,9-dione” (Bristol-Myers Company, priority 1989, dated 1990).

Read-outs that look alike come from different tables or passages of the source.

The target of series [1] is T1, Serotonin Type 2 (5-HT2) (Rattus norvegicus, UniProt P14842).
T1 construct: from tissue; frontal cortex in the cited method
Nature of the series: Receptor binding test RB3, [3H] Spiperone ligand, D-Lysergide specific binding agent. From the text:
(§1) As indication of the psychotropic activity and specificity of a compound, state of the art in vitro central nervous system receptor binding (RB) methodology can be employed. […] Inhibition of radiolabeled ligand binding at such sites is considered a measure of the test compound's ability to affect corresponding central nervous system function in vivo.
(§2) Some of the more common binding tests employed are listed below in Table 1.

Series [2] has as its target Dopamine/Spiperone/neuroleptic receptor site. The series can be described thus: Receptor binding test RB1, [3H] Spiperone ligand, D(+)Butaclamol specific binding agent.
From the text: as §1, §2

The target in a further series is Alpha-1. Nature of the series: Receptor binding test RB2, [3H] WB-4104 ligand, Phentolamine specific binding agent.
From the text: as §1, §2

For the next series, the system named is trained fasted rats. The series can be described thus: Conditioned Avoidance Response (CAR), attenuation of avoidance response to electrical shock. The series is classed as in vivo. The following applies: Rattus norvegicus. From the text: (§3) The following in vivo test systems (Table 2) are illustrative of the conventional testing used to classify and differentiate a psychotropic agent from a non-specific CNS depressant.

For series [3], the target named is T2, Serotonin Type 1A (5-HT1A) (Bos taurus, UniProt F6Q2H9).
T2 construct: from tissue
T2 sequence (F6Q2H9 1-422): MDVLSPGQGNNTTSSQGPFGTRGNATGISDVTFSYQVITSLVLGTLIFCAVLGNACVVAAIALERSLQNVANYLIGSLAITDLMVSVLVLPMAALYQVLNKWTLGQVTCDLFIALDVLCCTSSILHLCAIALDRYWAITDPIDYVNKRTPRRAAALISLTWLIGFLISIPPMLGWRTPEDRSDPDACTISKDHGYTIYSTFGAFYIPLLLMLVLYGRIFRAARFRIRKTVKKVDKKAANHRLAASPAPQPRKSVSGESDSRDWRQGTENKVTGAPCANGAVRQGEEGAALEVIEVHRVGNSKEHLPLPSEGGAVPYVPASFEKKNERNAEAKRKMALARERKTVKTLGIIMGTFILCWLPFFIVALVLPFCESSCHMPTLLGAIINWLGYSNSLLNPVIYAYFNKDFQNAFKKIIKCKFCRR
Nature of the series: Receptor binding test RB4, [3H] 8-OH-DPAT ligand, 8-OH-DPAT specific binding agent.
From the text: as §1, §2

A further series has as its system dopaminergic activity. Nature of the series: Inhibition of Apomorphine-Induced (APO) Stereotypy, blockade of dopaminergic activity. The note with it: Rattus norvegicus, read-out: APO ED50. Type of series: in vivo, rats. The source says:
The following in vivo test systems (Table 2) are illustrative of the conventional testing used to classify and differentiate a psychotropic agent from a non-specific CNS depressant. |2. Inhibition of Apomorphine-Induced (APO) Stereotypy - | an assessment of blockade of dopaminergic activity in rats | as measured by attenuation of the behavioral syndrome | caused by the dopamine agonist, apomorphine. cf: Janssen, | et al, Arzneimittel.

For series [4], the system named is central nervous system receptor. The series can be described thus: in vitro receptor binding (RB) tests, overall (Table 6).
From the text: As indication of the psychotropic activity and specificity of a compound, state of the art in vitro central nervous system receptor binding (RB) methodology can be employed. Certain compounds (commonly referred to as ligands) have been identified which preferentially bind to specific high affinity sites in brain tissue dealing with psychotropic activity. Inhibition of radiolabeled ligand binding at such sites is considered a measure of the test compound's ability to affect corresponding central nervous system function in vivo.
as §2

Another series has as its system psychotropic activity. The series can be described thus: in vivo screens predictive of antipsychotic activity, overall (Table 7). On the set-up: species or system rats. The following applies: compared to tiospirone.
From the text: as §3
1. Conditioned Avoidance Response (CAR) - measure of a
drug's tranquilizing activity as determined by its'
attenuation of avoidance response to electrical shock in
trained fasted rats. cf: Albert, Pharmacologist, -4, 152 (1962);
2. Inhibition of Apomorphine-Induced (APO) Stereotypy -
an assessment of blockade of dopaminergic activity in rats
as measured by attenuation of the behavioral syndrome
caused by the dopamine agonist, apomorphine. cf: Janssen,
et al, Arzneimittel. Forsch., --17, 841 (1966).

Series [5] concerns the target T1, Serotonin Type 2 (5-HT2). The note with it: background statement; cited from earlier work.
Series [6] concerns alpha-adrenergic receptor. The following applies: background statement; cited from earlier work.
The next series deals with sigma receptor. The following applies: background statement; cited from earlier work.
For a further series, the system named is dopamine D2 receptors. The note with it: background statement; cited from earlier work.
The subject of the next series is dopamine receptor. The following applies: following chronic administration; background statement; cited from earlier work.
Series [7] concerns Serotonin Type 1A (5-HT1A). The note with it: background statement; cited from earlier work.

T1 sequence (P14842 whole entry): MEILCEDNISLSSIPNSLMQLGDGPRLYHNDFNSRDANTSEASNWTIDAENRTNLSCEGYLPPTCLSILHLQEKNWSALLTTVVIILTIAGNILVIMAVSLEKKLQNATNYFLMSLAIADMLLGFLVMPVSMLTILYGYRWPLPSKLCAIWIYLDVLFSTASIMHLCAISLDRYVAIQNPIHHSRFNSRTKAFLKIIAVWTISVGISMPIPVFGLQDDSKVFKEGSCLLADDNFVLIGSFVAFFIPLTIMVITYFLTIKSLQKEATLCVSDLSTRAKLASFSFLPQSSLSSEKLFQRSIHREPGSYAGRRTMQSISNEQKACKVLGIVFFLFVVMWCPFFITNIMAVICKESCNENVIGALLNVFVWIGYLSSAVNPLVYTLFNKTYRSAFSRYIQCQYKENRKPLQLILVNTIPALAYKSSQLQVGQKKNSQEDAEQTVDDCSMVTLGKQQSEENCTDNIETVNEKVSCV

With `O=C1CC2(CCC(O)C2)CC(=O)N1CCC(O)CN1CCN(c2nsc3ccccc23)CC1` (centres unmarked) [Reference # 9], the IC50 at Serotonin Type 2 (5-HT2) [1] is 19.8 nM; in series [2] it was 491 nM; at Alpha-1, 7.15 nM.
In the case of `O=C1CC2(CCCC2)CC(=O)N1CCC(O)CN1CCN(c2nsc3ccccc23)CC1` (centres unmarked) [Reference # 7], the IC50 came out at 10.2 nM on Serotonin Type 2 (5-HT2) [1], 111 nM in series [2] and 8.3 nM at Alpha-1. The ED50 in the series with trained fasted rats (po) was > 80 mg/kg.
Turning to `O=C1CN(C2=NS(=O)(=O)c3ccccc32)CCN1` [Reference # 17, 4-(1,2-Benzisothiazol-1,1-dioxo-3-yl)-2-oxo-lH-piperazine], the results for the IC50 (at Serotonin Type 2 (5-HT2) [1]; in [3] (read-out: RB4 IC50); at Alpha-1) were > 100000 nM, > 1000 nM and 13100 nM, respectively.
With `O=C1CC2(CCCC2)CC(=O)N1CCCCN1CCN(C2=NS(=O)(=O)c3ccccc32)CC1` [Reference # 1], the results for the 50% inhibitory concentration (IC50) (on Serotonin Type 2 (5-HT2) [1]; in [2]; at Alpha-1) were 25000 nM, > 1000 nM and 274 nM, respectively. The 50% effective dose (ED50) in the series on trained fasted rats (po) and in the series on dopaminergic activity (po) was > 100 mg/kg in each case.
With `O=C1CCC2(C1)CC(=O)N(CCCCN1CCN(c3nsc4ccccc34)CC1)C(=O)C2` [Reference # 5, 2-Oxo-8-[4-[4-(1,2-benzisothiazol-3-yl)-1-piperazinyl]butyl]-8-azaspiro[4.5]decane-7,9-dione], the IC50 is 2.92 nM on Serotonin Type 2 (5-HT2) [1], 68.3 nM in series [2] and 1.3 nM on Alpha-1. For the same molecule, the ED50 with trained fasted rats (sc) is 60.3 mg/kg; with dopaminergic activity (sc), > 50 mg/kg.
Take `CCCCCCCCCC(=O)OC1CCC2(CC(=O)N(CCCCN3CCN(c4nsc5ccccc45)CC3)C(=O)C2)C1` (centres unmarked) [Reference # 12, 8-[4-[4-(1,2-Benzisothiazol-3-yl)-1-piperazinyl]butyl]-7,9-dioxo-8-azaspiro[4.5]decan-2-yl Decanoate]: the IC50 was determined as 10.2 nM on Serotonin Type 2 (5-HT2) [1], 153 nM in series [2], 35.8 nM in series [3] (read-out: RB4 IC50) and 7.22 nM on Alpha-1.
As for `O=C1CC2(CCCC2)CC(=O)N1CCCCN1CCN(c2n[s+]([O-])c3ccccc23)CC1` (centres unmarked) [Reference # ii, 8-[4-[4-(1-oxo-l,2-benzisothiazol-3-yl) -1-piperazinyl]butyl]-8-azaspiro[4.5]decane-7,9-dione, reference compound], the concentration for half-maximal inhibition (IC50) on Serotonin Type 2 (5-HT2) [1] was found to be 276 nM; in series [2], 3490 nM; in series [3] (read-out: RB4 IC50) it was 1120 nM; on Alpha-1, 331 nM. The results for the 50% effective dose (ED50) in the series with trained fasted rats (po) and in the series on dopaminergic activity (po) were 7.6 mg/kg and 9.6 mg/kg, respectively. In addition, the “in vitro binding affinity compared to tiospirone” value in series [4] is recorded as “attenuation of in vitro binding affinity”. For the same molecule, the “potency in in vivo screens predictive of antipsychotic activity” value with psychotropic activity is on record as “did not affect its potency”.
With `O=C1CC2(CCCC2)C(O)C(=O)N1CCCCN1CCN(c2nsc3ccccc23)CC1` (centres unmarked) [Reference # 10, 8-[4-[4-(1,2-Benzisothiazol-3-yl)-1-piperazinyl]butyl]-6-hydroxy-8-azaspiro[-4.5]decane-7,9-dione], the half-maximal inhibitory concentration (IC50) on Serotonin Type 2 (5-HT2) [1] stood at 1.1 nM. Besides, the median effective dose (ED50) was determined as 8.4 mg/kg with trained fasted rats (po) and 26 mg/kg in the series on dopaminergic activity (po).
As for `CC(C)(C)OC(=O)N1CCN(C2=NS(=O)(=O)c3ccccc32)CC1` [Reference # 18, 1,1-Dimethylethyl 4-(1,2-Benzisothiazol-1,1-dioxo-3-yl)-1piperazinecarboxylate], the concentration for half-maximal inhibition (IC50) is > 1000 nM in [2], > 100000 nM in [3] (read-out: RB4 IC50) and > 100000 nM on Alpha-1.
With `c1ccc2c(N3CCNCC3)nsc2c1` [Reference # 14, 4-(1,2-benzisothiazol-3-yl)1H-piperazine], the IC50 is 110 nM at Serotonin Type 2 (5-HT2) [1], > 1000 nM in series [2], 179 nM in series [3] and 510 nM on Alpha-1.
For the molecule `O=C1CC2(CCC(O)C2)CC(=O)N1CCCCN1CCN(c2nsc3ccccc23)CC1` (centres unmarked) [Reference # 2, 2-Hydroxy-8-[4-[4-(1,2-benzisothiazol-3-yl)-1-piperazinyl]butyl]-8-azaspiro[4.5]decane-7,9-dione], the values for the IC50 (at Serotonin Type 2 (5-HT2) [1]; in series [2]; on Alpha-1) were 2.05 nM, 52.5 nM and 0.876 nM, respectively. Also, in the series with trained fasted rats (po), the 50% effective dose (ED50) was > 100 mg/kg.
Consider `O=C1CC2(CCCC2)CC(=O)N1CCCCN1CCN(c2nsc3ccccc23)CC1` [Reference # i, 8-[4-[4-(1,2-benzisothiazol-3-yl)-1-piperazinyl]butyl]-8-azaspiro[4.5]decane-7,9-dione], for which the “in vitro interactions at serotonin 5-HT2 receptors” value on Serotonin Type 2 (5-HT2) [5] is on record as “potent”. The values for the 50% effective dose (ED50) in the series on trained fasted rats (po) and with dopaminergic activity (po) were 10.9 mg/kg and 13.1 mg/kg, respectively. In addition, the “in vitro interactions at alpha-adrenergic receptor sites” value in series [6] was “potent”. Also, the “in vitro interactions at sigma receptor sites” value in the series on sigma receptor was “potent”. Moreover, the “in vitro affinity for dopamine D2 receptors” value in the series on dopamine D2 receptors is given as “appreciable”. The molecule also had an IC50 at Alpha-1 of 47 nM. Also, the dopamine receptor supersensitivity result in the series with dopamine receptor is given as “does not cause dopamine receptor supersensitivity”. Besides, in [7], the “in vitro interactions at serotonin 5-HT1A receptors” value was “potent”.
`O=C1CC2(CCC(O)C2)CC(=O)N1CCCCN1CCN(c2n[s+]([O-])c3ccccc23)CC1` (centres unmarked) [Reference # 3]: the concentration for half-maximal inhibition (IC50) is 1480 nM at Serotonin Type 2 (5-HT2) [1], > 100000 nM in [2], 1850 nM in series [3] (read-out: RB4 IC50) and 372 nM at Alpha-1.

Broadly, the IC50 is the concentration needed to halve the response being measured. Broadly, the ED50 is the midpoint of the dose-response relation.
